Reference: US11078228B2, “Ectonucleotidase inhibitors and methods of use thereof” (Calithera Biosciences, Inc., priority 2018, dated 2021)

These compounds were tested against recombinant CD73 (Homo sapiens (Human), UniProt P21589) (assay: Assay 2: Inhibition of the CD73 enzyme in vitro (0.05 nM CD73, 1 hour 37° C., Malachite Green)). Settings: 0.05 nM CD73, 50 μM AMP, 1 hour at 37° C.
Assay type: biochemical
In short: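 Free phosphate was quantified from absorbance at 630 nm against a phosphate standard curve. This was read 5 min after Malachite Green was added at room temperature. Beforehand, the recombinant soluble enzyme reacted for 1 hour at 37° C.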

Chain of recombinant CD73 (P21589 27-547): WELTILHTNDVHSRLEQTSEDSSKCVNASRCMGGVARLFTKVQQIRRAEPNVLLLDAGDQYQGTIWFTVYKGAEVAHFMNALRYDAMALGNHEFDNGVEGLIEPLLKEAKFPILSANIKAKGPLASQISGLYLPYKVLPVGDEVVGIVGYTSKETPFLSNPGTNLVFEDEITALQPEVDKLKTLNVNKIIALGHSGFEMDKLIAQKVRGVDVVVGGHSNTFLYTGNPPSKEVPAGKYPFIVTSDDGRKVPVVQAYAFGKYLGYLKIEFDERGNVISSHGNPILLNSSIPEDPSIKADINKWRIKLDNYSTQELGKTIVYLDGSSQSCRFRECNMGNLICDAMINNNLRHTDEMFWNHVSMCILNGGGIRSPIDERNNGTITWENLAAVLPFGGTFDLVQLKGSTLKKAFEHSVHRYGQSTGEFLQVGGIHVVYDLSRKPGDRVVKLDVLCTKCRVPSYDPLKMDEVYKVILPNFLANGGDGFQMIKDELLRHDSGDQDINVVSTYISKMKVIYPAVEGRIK

How did the IC50 turn out when `C#C[C@@]1(O)[C@@H](COC(Cc2ccccc2)(C(=O)O)C(=O)O)O[C@@H](n2cnc3c(NCCOC)nc(Cl)nc32)[C@@H]1O` [Example 38, 2-benzyl-2-(((2R,3S,4R,5R)-5-(2-chloro-6-((2-methoxyethyl)amino)-9H-purin-9-yl)-3-ethynyl-3,4-dihydroxytetrahydrofuran-2-yl)methoxy)malonic acid] was run?
Its IC50 is 3 nM.

How did the IC50 turn out when `C#C[C@@]1(O)[C@@H](COC(Cc2cncs2)(C(=O)O)C(=O)O)O[C@@H](n2cnc3c(N)nc(Cl)nc32)[C@@H]1O` [Example 143, 2-(((2R,3S,4R,5R)-5-(6-amino-2-chloro-9H-purin-9-yl)-3-ethynyl-3,4-dihydroxytetrahydrofuran-2-yl)methoxy)-2-(thiazol-5-ylmethyl)malonic acid] was run?
The IC50 was 13 nM.

Which IC50 does the source give for `Nc1nc(Cl)nc2c1ncn2[C@@H]1O[C@H](COC(Cc2ccccc2)(C(=O)O)C(=O)O)[C@](O)(C#CC2CC2)[C@H]1O` [Compound 4, 2-(((2R,3S,4R,5R)-5-(6-amino-2-chloro-9H-purin-9-yl)-3-(cyclopropylethynyl)-3,4-dihydroxytetrahydrofuran-2-yl)methoxy)-2-benzylmalonic acid] here?
The IC50 was 0.5 nM.

For `C#C[C@@]1(O)[C@@H](COC(Cc2ccccc2)(C(=O)O)C(=O)O)O[C@@H](n2cnc3c(N(CCO)C4CC4)nc(Cl)nc32)[C@@H]1O` [Example 99, 2-benzyl-2-(((2R,3S,4R,5R)-5-(2-chloro-6-(cyclopropyl(2-hydroxyethyl)amino)-9H-purin-9-yl)-3-ethynyl-3,4-dihydroxytetrahydrofuran-2-yl)methoxy)malonic acid], which IC50 is on record?
Its IC50 is 6 nM.

How did the IC50 turn out when `C#C[C@@]1(O)[C@@H](COC(Cc2ccc(-c3cccn(CC)c3=O)cc2)(C(=O)O)C(=O)O)O[C@@H](n2cnc3c(N)nc(Cl)nc32)[C@@H]1O` [Example 20, 2-(((2R,3S,4R,5R)-5-(6-amino-2-chloro-9H-purin-9-yl)-3-ethynyl-3,4-dihydroxytetrahydrofuran-2-yl)methoxy)-2-(4-(1-ethyl-2-oxo-1,2-dihydropyridin-3-yl)benzyl)malonic acid] was run?
The IC50 was 0.2 nM.

`C#C[C@@]1(O)[C@@H](COC(Cc2ccc(N3CCCN(CCO)C3=O)cc2)(C(=O)O)C(=O)O)O[C@@H](n2cnc3c(NCC4CC4)nc(Cl)nc32)[C@@H]1O` [Example 138, 2-(((2R,3S,4R,5R)-5-(2-chloro-6-((cyclopropylmethyl)amino)-9H-purin-9-yl)-3-ethynyl-3,4-dihydroxytetrahydrofuran-2-yl)methoxy)-2-(4-(3-(2-hydroxyethyl)-2-oxotetrahydropyrimidin-1 (2H)-yl)benzyl)malonic acid] was tested. Which IC50 did it give?
Its IC50 is 0.15 nM.

How did the IC50 turn out when `C#C[C@@]1(O)[C@@H](COC(Cc2ccccc2)(C(=O)O)C(=O)NC)O[C@@H](n2cnc3c(NCC4CC4)nc(Cl)nc32)[C@@H]1O` (stereo partly drawn) [Example 106, 2-benzyl-2-(((2R,3S,4R,5R)-5-(2-chloro-6-((cyclopropylmethyl)amino)-9H-purin-9-yl)-3-ethynyl-3,4-dihydroxytetrahydrofuran-2-yl)methoxy)-3-(methylamino)-3-oxopropanoic acid] was run?
The IC50 was 296 nM.

With `C#C[C@@]1(O)[C@@H](COC(Cc2ccsc2)(C(=O)O)c2cscn2)O[C@@H](n2cnc3c(NC(C)C)nc(Cl)nc32)[C@@H]1O` (stereo partly drawn) [Example 169, 2-(((2R,3S,4R,5R)-5-(2-chloro-6-(isopropylamino)-9H-purin-9-yl)-3-ethynyl-3,4-dihydroxytetrahydrofuran-2-yl)methoxy)-2-(thiazol-4-yl)-3-(thiophen-3-yl)propanoic acid] as the compound, how does the IC50 read?
Its IC50 is 162 nM.

For `C#C[C@@]1(O)[C@@H](CO[C@@](Cc2ccccc2)(C(=O)O)c2cscn2)O[C@@H](n2cnc3c(NCC4CC4)nc(Cl)nc32)[C@@H]1O` (single isomer, unassigned) [Example 173], which IC50 is on record?
Its IC50 is 112 nM.

Which IC50 does the source give for `C#C[C@@]1(O)[C@@H](COC(Cc2ccccc2)(C(=O)O)C(=O)O)O[C@@H](n2cnc3c(N(C)C4CC4)nc(Cl)nc32)[C@@H]1O` [Example 105, 2-benzyl-2-(((2R,3S,4R,5R)-5-(2-chloro-6-(cyclopropyl(methyl)amino)-9H-purin-9-yl)-3-ethynyl-3,4-dihydroxytetrahydrofuran-2-yl)methoxy)malonic acid] here?
The IC50 was 2 nM.

Which IC50 does the source give for `C#C[C@@]1(O)[C@@H](COC(Cc2ccccc2)(C(=O)O)C(=O)O)O[C@@H](n2cnc3c(NCc4ccc(F)cc4)nc(Cl)nc32)[C@@H]1O` [Example 68, 2-benzyl-2-(((2R,3S,4R,5R)-5-(2-chloro-6-((4-fluorobenzyl)amino)-9H-purin-9-yl)-3-ethynyl-3,4-dihydroxytetrahydrofuran-2-yl)methoxy)malonic acid] here?
Its IC50 is 0.8 nM.

How did the IC50 turn out when `C#C[C@@]1(O)[C@@H](COC(Cc2ccc(N3CCCNC3=O)cc2)(C(=O)O)c2cscn2)O[C@@H](n2cnc3c(N)nc(Cl)nc32)[C@@H]1O` (stereo partly drawn) [Example 175, 2-(((2R,3S,4R,5R)-5-(6-amino-2-chloro-9H-purin-9-yl)-3-ethynyl-3,4-dihydroxytetrahydrofuran-2-yl)methoxy)-3-(4-(2-oxotetrahydropyrimidin-1 (2H)-yl)phenyl)-2-(thiazol-4-yl)propanoic acid] was run?
The IC50 was 1 nM.

For `C#C[C@@]1(O)[C@@H](COC(Cc2ccc(N3CCCCC3=O)cc2)(C(=O)O)C(=O)O)O[C@@H](n2cnc3c(N)nc(Cl)nc32)[C@@H]1O` [Compound 10, 2-(((2R,3S,4R,5R)-5-(6-amino-2-chloro-9H-purin-9-yl)-3-ethynyl-3,4-dihydroxytetrahydrofuran-2-yl)methoxy)-2-(4-(2-oxopiperidin-1-yl)benzyl)malonic acid], which IC50 is on record?
The IC50 was 0.26 nM.

For `C#C[C@@]1(O)[C@@H](COC(Cc2ccccc2)(C(=O)O)C(=O)O)O[C@@H](n2cnc3c(NCc4ccc(Cl)cc4)nc(Cl)nc32)[C@@H]1O` [Example 87, 2-benzyl-2-(((2R,3S,4R,5R)-5-(2-chloro-6-((4-chlorobenzyl)amino)-9H-purin-9-yl)-3-ethynyl-3,4-dihydroxytetrahydrofuran-2-yl)methoxy)malonic acid], which IC50 is on record?
The IC50 was 0.6 nM.

Which IC50 does the source give for `C#C[C@@]1(O)[C@@H](COC(Cc2ccc(-c3cccn(CCC)c3=O)cc2)(C(=O)O)C(=O)O)O[C@@H](n2cnc3c(NC)nc(Cl)nc32)[C@@H]1O` [Example 160, 2-(((2R,3S,4R,5R)-5-(2-chloro-6-(methylamino)-9H-purin-9-yl)-3-ethynyl-3,4-dihydroxytetrahydrofuran-2-yl)methoxy)-2-(4-(2-oxo-1-propy-1,2-dihydropyridin-3-yl)benzyl)malonic acid] here?
The IC50 was 0.31 nM.

`C=C[C@@]1(O)[C@@H](COC(Cc2ccccc2)(C(=O)O)C(=O)O)O[C@@H](n2cnc3c(N)nc(Cl)nc32)[C@@H]1O` [Example 57, 2-(((2R,3S,4R,5R)-5-(6-amino-2-chloro-9H-purin-9-yl)-3,4-dihydroxy-3-vinyltetrahydrofuran-2-yl)methoxy)-2-benzylmalonic acid] was tested. Which IC50 did it give?
Its IC50 is 103 nM.

`C#C[C@@]1(O)[C@@H](COC(C)(C(=O)O)C(=O)O)O[C@@H](n2cnc3c(N)nc(Cl)nc32)[C@@H]1O` [Example 17, 2-(((2R,3S,4R,5R)-5-(6-amino-2-chloro-9H-purin-9-yl)-3-ethynyl-3,4-dihydroxytetrahydrofuran-2-yl)methoxy)-2-methylmalonic acid] was tested. Which IC50 did it give?
The IC50 was 347 nM.

`C#C[C@@]1(O)[C@@H](COC(Cc2ccccc2)(C(=O)O)C(=O)O)O[C@@H](n2cnc3c(-c4ccccc4)nc(Cl)nc32)[C@@H]1O` [Example 14, 2-benzyl-2-(((2R,3S,4R,5R)-5-(2-chloro-6-phenyl-9H-purin-9-yl)-3-ethynyl-3,4-dihydroxytetrahydrofuran-2-yl)methoxy)malonic acid] was tested. Which IC50 did it give?
Its IC50 is 0.6 nM.

`C#C[C@@]1(O)[C@@H](COC(Cc2ccc(N3CCCNC3=O)cc2)(C(=O)O)C(=O)O)O[C@@H](n2cnc3c(NCC4CC4)nc(Cl)nc32)[C@@H]1O` [Example 136, 2-(((2R,3S,4R,5R)-5-(2-chloro-6-((cyclopropylmethyl)amino)-9H-purin-9-yl)-3-ethynyl-3,4-dihydroxytetrahydrofuran-2-yl)methoxy)-2-(4-(2-oxotetrahydropyrimidin-1(2H)-yl)benzyl)malonic acid] was tested. Which IC50 did it give?
The IC50 was 0.24 nM.

`C#C[C@@]1(O)[C@@H](COC(Cc2ccccc2)(C(=O)O)C(=O)O)O[C@@H](n2cnc3c(N[C@H]4CCc5ccccc54)nc(Cl)nc32)[C@@H]1O` [Example 72, 2-benzyl-2-(((2R,3S,4R,5R)-5-(2-chloro-6-(((S)-2,3-dihydro-1H-inden-1-yl)amino)-9H-purin-9-yl)-3-ethynyl-3,4-dihydroxytetrahydrofuran-2-yl)methoxy)-malonic acid] was tested. Which IC50 did it give?
Its IC50 is 3 nM.

For `C#C[C@@]1(O)[C@@H](COC(Cc2ccccc2)(C(=O)O)C(=O)O)O[C@@H](n2cnc3c(N4CCCCCC4)nc(Cl)nc32)[C@@H]1O` [Example 80, 2-(((2R,3S,4R,5R)-5-(6-(azepan-1-yl)-2-chloro-9H-purin-9-yl)-3-ethynyl-3,4-dihydroxytetrahydrofuran-2-yl)methoxy)-2-benzylmalonic acid], which IC50 is on record?
The IC50 was 2 nM.

How did the IC50 turn out when `C#C[C@@]1(O)[C@@H](COC(Cc2ccccc2)(C(=O)O)C(=O)O)O[C@@H](n2cnc3c(N[C@@H]4CCc5ccccc54)nc(Cl)nc32)[C@@H]1O` [Example 69, 2-benzyl-2-(((2R,3S,4R,5R)-5-(2-chloro-6-(((R)-2,3-dihydro-1H-inden-1-yl)amino)-9H-purin-9-yl)-3-ethynyl-3,4-dihydroxytetrahydrofuran-2-yl)methoxy)-malonic acid] was run?
Its IC50 is 3 nM.

With `C#C[C@@]1(O)[C@@H](COC(Cc2ccc(-c3cccnc3N)cc2)(C(=O)O)C(=O)O)O[C@@H](n2cnc3c(N)nc(Cl)nc32)[C@@H]1O` [Example 197, 2-(((2R,3S,4R, 5R)-5-(6-amino-2-chloro-9H-purin-9-yl)-3-ethynyl-3,4-dihydroxytetrahydrofuran-2-yl)methoxy)-2-(4-(2-aminopyridin-3-yl)benzyl)malonic acid] as the compound, how does the IC50 read?
Its IC50 is 0.73 nM.

`C#C[C@@]1(O)[C@@H](COC(Cc2ccc(N3CCCN(C)C3=O)cc2)(C(=O)O)C(=O)O)O[C@@H](n2cnc3c(NC)nc(Cl)nc32)[C@@H]1O` [Example 148, 2-(((2R,3S,4R,5R)-5-(2-chloro-6-(methylamino)-9H-purin-9-yl)-3-ethynyl-3,4-dihydroxytetrahydrofuran-2-yl)methoxy)-2-(4-(3-methyl-2-oxotetrahydropyrimidin-1 (2H)-yl)benzyl)malonic acid] was tested. Which IC50 did it give?
Its IC50 is 0.08 nM.
